# Laboratory results as given in US8338422B2, “Indolin-2-ones and aza-indolin-2-ones” (Janssen Pharmaceutica NV, priority 2007, dated 2012).
# How the values were obtained:
# PC-3 = assay: Cellular proliferation assay (Alamar blue), PC-3; format: cell-based; conditions: PC-3 cells, 72 hours with compound, 10% FCS; for IC50: Homo sapiens, PC-3, 72 h, read-out: pIC50 PC-3 (converted)
# Method in brief: (§1)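 Proliferation was assessed over 72 h of compound treatment, following 24 h of seeding without compound, under 10% FCS, 37° C. and 5% CO2. Fluorescent resazurin product was measured and compared with control cells.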
# AuroraB (h) = AuroraB (h) (Homo sapiens, UniProt Q96GD4); assay: Aurora-B human kinase assay (SPA); format: biochemical; conditions: for IC50: read-out: AuroraB pIC50 (converted)
# AuroraB (h), sequence (Q96GD4 whole entry): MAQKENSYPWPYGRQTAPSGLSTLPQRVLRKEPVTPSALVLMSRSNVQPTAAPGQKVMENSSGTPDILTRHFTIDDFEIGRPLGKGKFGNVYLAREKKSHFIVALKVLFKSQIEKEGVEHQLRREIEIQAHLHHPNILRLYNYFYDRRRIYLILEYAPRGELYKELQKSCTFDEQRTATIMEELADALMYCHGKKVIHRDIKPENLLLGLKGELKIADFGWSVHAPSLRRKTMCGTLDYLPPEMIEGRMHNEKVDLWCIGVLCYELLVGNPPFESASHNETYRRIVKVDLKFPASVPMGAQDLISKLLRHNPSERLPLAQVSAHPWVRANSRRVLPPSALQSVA
# Method in brief: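 33P-phosphorylated biotin-substrate captured on streptavidin PVT SPA beads after EDTA-containing stop and imaged on Leadseeker. Reaction: 60 min at room temperature, Hepes pH 7.5 with Mg2+/Mn2+. Conditions: 0.5 μM ATP plus 2.2 nM [γ-33P]ATP, 3 μM substrate, 0.5 μg/ml human AuroraB.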
# MCF-7 = assay: Cellular proliferation assay (Alamar blue), MCF-7; format: cell-based; conditions: 72 hours with compound, 10% FCS; for IC50: Homo sapiens, MCF7, MCF-7 cells, read-out: pIC50 MCF-7 (converted); for pIC50 MCF-7: MCF-7 cells
# Experimental: (§2) […] functional properties of these compounds was tested in cellular proliferation assays on a panel of different cell lines in the presence of 10% FCS serum (37° C. and 5% (v/v) CO2). In a first step these cells were seeded and incubated for 24 hours in the absence of compound. In the second step the cells were incubated for 72 hours with the compounds to be tested for 72 hours. The viable cell number was finally assessed in a standard Alamar blue cell viability assay.
# (§3) The viable cell number was assessed by incubation for either 4 h (HCT-116, H1299, H460) 6 h (SKOV3, HT29, U87-MG, Colo205) or 24 h (A2780, PC3, MDA-MB-231, A549, MCF-7) with Alamar blue (Resazurin 9 μg/ml, K-Ferrocyanide 90 μM K-Ferricyanide 90 μM) and the converted fluorescent product was quantified on a fluorescent plate readed (544 nm/590 nm). Effect of the compounds is calculated as of on control cells.
# Colo205 = assay: Cellular proliferation assay (Alamar blue), Colo205; format: cell-based; conditions: 72 hours with compound, 10% FCS; for IC50: Homo sapiens, COLO 205, Colo205 cells, read-out: pIC50 Colo205 (converted); for pIC50 Colo205: Colo205 cells
# Experimental: as §2, §3
# A549 = assay: Cellular proliferation assay (Alamar blue), A549; format: cell-based; conditions: A549 cells, 72 hours with compound, 10% FCS; for IC50: Homo sapiens, read-out: pIC50 A549 (converted)
# Experimental: as §2, §3
# PLK4 (h) = PLK4 (h) (Homo sapiens, UniProt O00444); assay: PLK-4 human kinase assay (SPA); format: biochemical; conditions: for IC50: read-out: PLK4 pIC50 (converted)
# PLK4 (h), sequence (O00444 whole entry): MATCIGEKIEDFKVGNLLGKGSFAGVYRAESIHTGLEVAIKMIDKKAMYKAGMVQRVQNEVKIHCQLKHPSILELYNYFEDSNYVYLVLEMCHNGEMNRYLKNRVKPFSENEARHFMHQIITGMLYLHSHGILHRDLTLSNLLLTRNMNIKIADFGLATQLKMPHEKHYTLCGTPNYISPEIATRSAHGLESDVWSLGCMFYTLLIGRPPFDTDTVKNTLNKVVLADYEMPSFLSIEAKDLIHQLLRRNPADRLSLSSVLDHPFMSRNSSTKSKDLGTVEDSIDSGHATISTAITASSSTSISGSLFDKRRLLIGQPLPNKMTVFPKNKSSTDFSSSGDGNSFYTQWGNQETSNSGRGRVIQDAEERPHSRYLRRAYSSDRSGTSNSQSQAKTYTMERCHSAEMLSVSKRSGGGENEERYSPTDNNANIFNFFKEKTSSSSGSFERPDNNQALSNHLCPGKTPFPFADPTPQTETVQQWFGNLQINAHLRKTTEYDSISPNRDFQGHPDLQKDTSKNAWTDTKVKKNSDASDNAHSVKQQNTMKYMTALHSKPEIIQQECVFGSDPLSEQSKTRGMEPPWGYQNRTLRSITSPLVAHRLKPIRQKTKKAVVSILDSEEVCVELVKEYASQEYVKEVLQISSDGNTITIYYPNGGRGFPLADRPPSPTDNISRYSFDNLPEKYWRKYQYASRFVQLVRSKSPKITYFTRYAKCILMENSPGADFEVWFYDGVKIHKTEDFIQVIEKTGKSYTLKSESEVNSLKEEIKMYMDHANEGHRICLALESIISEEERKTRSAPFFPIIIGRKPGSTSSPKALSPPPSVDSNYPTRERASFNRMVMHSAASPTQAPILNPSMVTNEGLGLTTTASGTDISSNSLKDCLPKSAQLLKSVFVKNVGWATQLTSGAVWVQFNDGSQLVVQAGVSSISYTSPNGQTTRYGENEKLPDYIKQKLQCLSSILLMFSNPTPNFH
# Method in brief: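 Radiometric readout: 33P-labelled peptide captured on streptavidin SPA beads after EDTA stop, imaged by Leadseeker. Reaction ran 60 min at room temperature in Hepes pH 8.0 buffer. It contained 1 μM ATP with 2 nM [γ-33P]ATP, 10 μM biotinylated peptide and PLK4 (h) at 19 μg/ml.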
# A431 = assay: Cellular proliferation assay (Alamar blue), A431; format: cell-based; conditions: 72 hours with compound, 10% FCS; for IC50: Homo sapiens, A-431, A431 cells, read-out: pIC50 A431 (converted); for pIC50 A431: A431 cells
# Experimental: as §2, §3
# SKOV3 = assay: Cellular proliferation assay (Alamar blue), SKOV3; format: cell-based; conditions: 72 hours with compound, 10% FCS; for IC50: Homo sapiens, SK-OV-3, SKOV3 cells, read-out: pIC50 SKOV3 (converted); for pIC50 SKOV3: SKOV3 cells
# Experimental: as §2, §3
# SK-N-SH = assay: Cellular proliferation assay (Alamar blue), SK-N-SH; format: cell-based; conditions: SK-N-SH cells, 72 hours with compound, 10% FCS; for IC50: Homo sapiens, read-out: pIC50 SK-N-SH (converted)
# Experimental: as §2, §3
# HT-29 = assay: Cellular proliferation assay (Alamar blue), HT-29; format: cell-based; conditions: HT-29 cells, 72 hours with compound, 10% FCS; for IC50: Homo sapiens, read-out: pIC50 HT-29 (converted)
# Experimental: as §2, §3
# U87MG = assay: Cellular proliferation assay (Alamar blue), U87MG; format: cell-based; conditions: Homo sapiens, U-87 MG, 72 h, U87MG cells, 72 hours with compound, 10% FCS, read-out: pIC50 U87MG (converted)
# Method in brief: as §1
# HCT-116 = assay: Cellular proliferation assay (Alamar blue), HCT-116; format: cell-based; conditions: Homo sapiens, HCT-116, 72 h, HCT-116 cells, 72 hours with compound, 10% FCS, read-out: pIC50 HCT-116 (converted)
# Method in brief: as §1
# DU-145 = assay: Cellular proliferation assay (Alamar blue), DU-145; format: cell-based; conditions: DU-145 cells, 72 hours with compound, 10% FCS; for IC50: Homo sapiens, read-out: pIC50 DU-145 (converted)
# Experimental: as §2, §3
# H460 = assay: Cellular proliferation assay (Alamar blue), H460; format: cell-based; conditions: 72 hours with compound, 10% FCS; for IC50: Homo sapiens, NCI-H460, H460 cells, read-out: pIC50 H460 (converted); for pIC50 H460: H460 cells
# Experimental: as §2, §3
# MDA/MB231 = assay: Cellular proliferation assay (Alamar blue), MDA/MB231; format: cell-based; conditions: Homo sapiens, MDA-MB-231, 72 h, MDA/MB231 cells, 72 hours with compound, 10% FCS, read-out: pIC50 MDA/MB231 (converted)
# Method in brief: as §1
# A2780 = assay: Cellular proliferation assay (Alamar blue), A2780; format: cell-based; conditions: Homo sapiens, A2780, 72 h, A2780 cells, 72 hours with compound, 10% FCS, read-out: pIC50 A2780 (converted)
# Method in brief: as §1
# H1299 = assay: Cellular proliferation assay (Alamar blue), H1299; format: cell-based; conditions: Homo sapiens, NCI-H1299, 72 h, H1299 cells, 72 hours with compound, 10% FCS, read-out: pIC50 H1299 (converted)
# Method in brief: as §1
# GSK3β (h) = GSK3β (h) (Homo sapiens, UniProt P49841); assay: GSK-3β human kinase assay (SPA); format: biochemical
# GSK3β (h), sequence (P49841 whole entry): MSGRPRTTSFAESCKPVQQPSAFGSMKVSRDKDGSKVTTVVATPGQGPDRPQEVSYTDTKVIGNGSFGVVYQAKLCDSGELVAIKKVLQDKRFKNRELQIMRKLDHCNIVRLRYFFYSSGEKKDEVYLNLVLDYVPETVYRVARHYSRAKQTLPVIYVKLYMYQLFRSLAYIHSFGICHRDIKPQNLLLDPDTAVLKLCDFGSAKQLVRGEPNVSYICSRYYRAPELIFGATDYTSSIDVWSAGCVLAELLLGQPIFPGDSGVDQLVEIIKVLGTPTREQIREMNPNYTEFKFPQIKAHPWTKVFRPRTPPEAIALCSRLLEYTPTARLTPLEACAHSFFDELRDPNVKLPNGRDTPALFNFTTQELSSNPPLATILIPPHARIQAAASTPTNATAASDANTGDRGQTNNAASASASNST
# Method in brief: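 Radiometric SPA read-out: after EDTA stop, biotinylated 33P-labelled peptide bound streptavidin PVT beads and was imaged on Leadseeker. Reaction: 60 min, room temperature, GSK3β (h) at 1 μg/ml, 1 μM substrate peptide, 1 μM ATP with 2 nM [γ-33P]ATP, Tris pH 7.4/MgCl2/DTT buffer.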
# CDK1/CyclinB (h) = CDK1/CyclinB (h) (Homo sapiens, UniProt P06493); assay: CDK1/CyclinB human kinase assay (FRET); format: biochemical
# CDK1/CyclinB (h), sequence (P06493 whole entry): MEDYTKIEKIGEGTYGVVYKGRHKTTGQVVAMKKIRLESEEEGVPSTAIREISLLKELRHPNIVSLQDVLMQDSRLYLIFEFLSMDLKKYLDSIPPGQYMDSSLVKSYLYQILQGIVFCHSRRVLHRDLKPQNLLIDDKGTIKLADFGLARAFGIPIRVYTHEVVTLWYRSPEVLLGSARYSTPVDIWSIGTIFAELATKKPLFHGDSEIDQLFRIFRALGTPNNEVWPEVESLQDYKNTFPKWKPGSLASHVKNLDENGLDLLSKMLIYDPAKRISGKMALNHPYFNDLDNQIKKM
# CDK1/CyclinB (h), sequence (P14635 whole entry partner): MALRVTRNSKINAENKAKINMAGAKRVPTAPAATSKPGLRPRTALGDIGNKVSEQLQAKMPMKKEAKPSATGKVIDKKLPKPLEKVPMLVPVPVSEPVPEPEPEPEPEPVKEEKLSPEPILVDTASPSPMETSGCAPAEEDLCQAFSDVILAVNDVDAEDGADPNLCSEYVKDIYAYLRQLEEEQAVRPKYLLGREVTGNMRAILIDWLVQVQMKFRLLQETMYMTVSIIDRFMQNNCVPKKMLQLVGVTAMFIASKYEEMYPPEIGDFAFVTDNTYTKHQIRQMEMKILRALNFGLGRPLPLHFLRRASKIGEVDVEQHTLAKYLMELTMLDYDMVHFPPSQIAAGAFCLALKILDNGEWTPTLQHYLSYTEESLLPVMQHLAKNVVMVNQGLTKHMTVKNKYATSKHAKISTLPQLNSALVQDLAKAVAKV
# Method in brief: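 Kinase activity was read as the 460/538 nm emission ratio after protease cleavage of unphosphorylated peptide (60 min development). The reaction ran 60 min at room temperature with 10 μM ATP, 2 μM Ser/Thr peptide 12 and 0.2 μg/ml enzyme in Hepes pH 7.5 buffer with MgCl2, EGTA, Brij-35.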
IC50 (PC-3) [µM],IC50 (AuroraB (h)) [µM],IC50 (MCF-7) [µM],IC50 (Colo205) [µM],IC50 (A549) [µM],IC50 (PLK4 (h)) [µM],IC50 (A431) [µM],IC50 (SKOV3) [µM],IC50 (SK-N-SH) [µM],IC50 (HT-29) [µM],IC50 (U87MG) [µM],IC50 (HCT-116) [µM],IC50 (DU-145) [µM],IC50 (H460) [µM],IC50 (A2780) [µM],Compound,IC50 (MDA/MB231) [µM],other results
,,> 10,> 10,> 10,> 10,,> 10,5.25,~8.32,,,> 10,,,COc1ccc2cc1OCCCC(=O)N(C)CCN(C)C1CCN(CC1)c1ncnc3c1/C(=C/N2)C(=O)N3 [Compound 34],,
> 10,> 10,> 10,> 10,> 10,> 10,> 10,> 10,> 10,> 10,,> 10,> 10,> 10,,O=C1Nc2ncnc3c2C1=CNc1ccc(c(Cl)c1)OCCCCCC(=O)N1CCN3CC1 (mixture of isomers) [Compound 14],> 10,IC50 (H1299): > 10 µM
,,,,,,,,,,,,,,,COc1ccc2cc1OCCCC(=O)N(C(C)C)CCCCN(C)c1ncnc3c1C(=CN2)C(=O)N3 (mixture of isomers) [Compound 33],,pIC50 PC-3 (PC-3): <5; GSK3B pIC50 (GSK3β (h)): 5.33; AuroraB pIC50 (AuroraB (h)): 5; pIC50 MCF-7 (MCF-7): 4.99; pIC50 Colo205 (Colo205): <5; pIC50 A549 (A549): <5; PLK4 pIC50 (PLK4 (h)): 5.27; pIC50 A431 (A431): <5; CDK1 pIC50 (CDK1/CyclinB (h)): 5.14; pIC50 SKOV3 (SKOV3): <5; pIC50 SK-N-SH (SK-N-SH): 5.27; pIC50 HT-29 (HT-29): <5; pIC50 DU-145 (DU-145): <5; pIC50 H460 (H460): <5
10.7,> 10,8.13,> 10,3.47,1.62,> 10,4.68,3.31,> 10,7.76,> 10,> 10,> 10,> 10,COc1ccc2cc1OCCCC(=O)N1CCN(CC1)c1ncnc3c1/C(=C/N2)C(=O)N3 [Compound 17],> 10,
,,,,,,,,,,,,,,,CC(C)N1CCCC(=O)N2CCN(CC2)c2ncnc3c2C(=CNc2ccc(F)c(c2)C1)C(=O)N3 (mixture of isomers) [Compound 30],,pIC50 PC-3 (PC-3): <5; pIC50 MCF-7 (MCF-7): <5; pIC50 Colo205 (Colo205): <5; pIC50 A549 (A549): <5; PLK4 pIC50 (PLK4 (h)): <5; pIC50 A431 (A431): <5; pIC50 SKOV3 (SKOV3): <5; pIC50 SK-N-SH (SK-N-SH): <5; pIC50 HT-29 (HT-29): <5; pIC50 DU-145 (DU-145): <5; pIC50 H460 (H460): <5
> 10,> 10,> 10,> 10,> 10,5.5,> 10,> 10,> 10,> 10,> 10,> 10,> 10,> 10,> 10,O=C1Nc2ncnc3c2C1=CNc1ccc(cc1)S(=O)(=O)NCCCCC(=O)N1CCN3CC1 (mixture of isomers) [Compound 15],> 10,
1,,1.58,2.04,2.14,1.05,1.32,3.31,1.62,2.51,,,3.98,2.34,,COc1ccc2cc1OCCCC(=O)N(C(C)C)CCN(C)c1ncnc3c1/C(=C/N2)C(=O)N3 [Compound 32],,
> 10,> 10,> 10,> 10,> 10,> 10,> 10,> 10,> 10,> 10,> 10,> 10,> 10,> 10,> 10,O=C1Nc2ncnc3c2C1=CNc1cc(ccc1Cl)OCCCCC(=O)N1CCN3CC1 (mixture of isomers) [Compound 13],> 10,
> 10,> 10,> 10,7.76,> 10,,> 10,> 10,6.61,> 10,,> 10,> 10,> 10,,O=C1Nc2ncnc3c2/C1=C/Nc1ccc(c(Cl)c1)OCCCCCCC(=O)N1CCN3CC1 [Compound 20],> 10,IC50 (H1299): > 10 µM

Compound,IC50 (PC-3) [µM],IC50 (AuroraB (h)) [µM],IC50 (MCF-7) [µM],IC50 (Colo205) [µM],IC50 (A549) [µM],IC50 (PLK4 (h)) [µM],IC50 (A431) [µM],IC50 (SKOV3) [µM],IC50 (SK-N-SH) [µM],IC50 (HT-29) [µM],IC50 (U87MG) [µM],IC50 (HCT-116) [µM],IC50 (DU-145) [µM],IC50 (H460) [µM],IC50 (A2780) [µM],IC50 (MDA/MB231) [µM],other results
CN1CCCCCC(=O)N2CCN(CC2)c2ncnc3c2/C(=C/Nc2cccc(c2)C1)C(=O)N3 [Compound 24],> 10,> 10,> 10,> 10,> 10,1.51,> 10,> 10,> 10,> 10,> 10,> 10,> 10,> 10,> 10,> 10,
CC(C)N1CCCCCC(=O)N2CCN(CC2)c2ncnc3c2/C(=C/Nc2ccc(F)c(c2)C1)C(=O)N3 [Compound 28],> 10,> 10,> 10,> 10,> 10,> 10,> 10,> 10,> 10,> 10,,,> 10,> 10,,,IC50 (GSK3β (h); read-out: GSK3B pIC50 (converted)): > 10 µM; IC50 (CDK1/CyclinB (h); read-out: CDK1 pIC50 (converted)): > 10 µM
